# Non-standard residues stand in square brackets, D forms with d. Residues, ends and D or L forms follow the SMILES beside them.
# Assays:
# CBP KIX domain = target: T1, CBP KIX domain (Mus musculus, UniProt P45481); assay: Microscale thermophoresis binding of FITC-conjugated peptides to purified recombinant CBP KIX domain; conditions: 50 mM sodium phosphate, 150 mM NaCl, 0.01% NP-40, pH 5.5, room temperature, ± standard error mean of three biological replicates
# T1 construct: Bacterial expression pGEX-KIX vector encoding the KIX domain of CBP; GST (N, cleaved yes); made in house; host or cells: E. coli BL21(DE3)
# T1 sequence (P45481 586-665 limits assumed): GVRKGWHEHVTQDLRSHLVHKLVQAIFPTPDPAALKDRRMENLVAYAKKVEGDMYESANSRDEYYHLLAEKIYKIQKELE
# Procedure: BL21(DE3) cells (Invitrogen) transformed with pGEX-KIX plasmid were induced at 37 °C with isopropyl β-D-1-thiogalactopyranoside for 3 h. Cells were lysed in 50 mM Tris–HCl pH 7.3, 150 mM NaCl, 0.1% Tween-20, 1 mM DTT, 5 mM EDTA, supplemented with protease inhibitors described above and sonicated for ten minutes (15 s on, 15 s off, 40% amplitude) using the Misonix probe sonicator (Qsonica, Newtown, CT). Lysate was cleared by centrifugation for 1 h at 21,800 × g at 4 °C. Cleared lysate was incubated with 4 ml glutathione agarose resin slurry (GoldBio) for 1 h at 4 °C to capture GST-KIX. Resin was washed four times with 50 mM Tris–HCl pH 7.4, 150 mM NaCl. KIX domain was cleaved from GST by incubation of resin-bound GST-KIX with 160 U thrombin (GE Healthcare) overnight at room temperature. Resin was centrifuged at 500 × g for 5 min. […] Cleaved KIX was purified using a linear gradient of 50 mM to 1 M NaCl by cation exchange chromatography using MonoS 5/50 GL column (GE Healthcare). […] Binding of purified recombinant KIX with FITC-conjugated peptides was measured using Monolith NT.115 (NanoTemper Technologies). Assays were conducted in 50 mM sodium phosphate, 150 mM NaCl, 0.01% NP-40, pH 5.5. […] MST measurements were recorded at room temperature for 10 s per capillary using fixed IR-laser power of 80% and LED excitation power of 40–50%.
# MOLM-13 cells = assay: RNA-seq transcriptome profiling; assay type: cell-based, human; conditions: MOLM13 cells, 20 µM, 6 h
# Procedure: Reads were quality and adapter trimmed using “trim_galore” before aligning to human assembly hg19 with STAR v2.5 using the default parameters. Coverage and post-alignment quality were assessed using the Picard tool CollectRNASeqMetrics (http://broadinstitute.github.io/picard/). Read count tables were created using HTSeq v0.6.1. Normalization and expression dynamics were evaluated with DESeq2 using the default parameters.
# MV-411 cells [1] = assay: MYB ChIP-seq; assay type: cell-based, human; conditions: 20 µM, 6 h, 3 biological replicates
# Procedure: ChIP was performed as previously described. Briefly, cells were fixed in 1% formalin in phosphate-buffered saline (PBS) for 10 minutes at room temperature. Glycine (125 mM final concentration) and Tris-HCl pH 8 (100 mM final concentration) were added to the cells and cells were washed twice in ice-cold PBS and resuspended in sodium dodecyl sulfate (SDS) lysis buffer (1% SDS, 10 mM EDTA, 50 mM Tris–HCl, pH 8.1). Lysates were sonicated using the Covaris S220 adaptive focused sonicator to obtain 100–500 bp chromatin fragments (Covaris, Woburn, CA). Lysates containing sheared chromatin fragments were resuspended in 0.01% SDS, 1.1% Triton-X100, 1.2 mM EDTA, 16.7 mM Tris–HCl, pH 8.1,167 mM NaCl. Lysates and antibody-coupled beads were incubated over night at 4 °C. […] Libraries were sequenced on the Illumina HiSeq 2500 instruments, with 30 million 2 × 50 bp paired reads.
# For ChIP-seq analysis, reads were quality and adapter trimmed using ‘trim_galore’ before aligning to human genome assembly hg19 with bwa mem using the default parameters. Aligned reads with the same start position and orientation were collapsed to a single read before subsequent analysis. Density profiles were created by extending each read to the average library fragment size and then computing density using the BEDTools suite. Enriched regions were discovered using MACS 2.0 and scored against matched input libraries. […]
# [2] = tested on: MOLM-13, MV-411, ML-2 and HL-60 cells; assay: Cell viability of AML cell lines; assay type: cell-based, human; conditions: 6 days, 20 μM TG1, TG2 or TG3, 10 and 20 μM MYBMIM, peptide replacement every 48 h, compared to untreated control
# Procedure: (§1) Cells were resuspended and plated at a concentration of 2 × 10^5 cells in 200 μl in 96-well tissue culture plates. Media with peptides was replaced every 48 h. To assess the number of viable cells, cells were resuspended in PBS and 10 µl of suspension was mixed in a 1:1 ratio with 0.4% Trypan Blue (Thermo Fisher) and counted using a hemacytometer (Hausser Scientific, Horsham, PA, USA). To assess viability using an ATP-based assay, cell viability was assessed using the CellTiter-Glo Luminescent Viability assay, according to the manufacturer’s instructions (Promega). Luminescence was recorded using the Infinite M1000Pro plate reader using integration time of 250 ms (Tecan).
# MV-411 and MOLM-13 cells = assay: qRT-PCR of BCL2 mRNA expression; assay type: cell-based, human; conditions: 20 μM, 6 h
# Procedure: RNA was isolated using Trizol reagent according to the manufacturer’s instructions (Life Technologies). Complementary DNA was synthesized using the SuperScript III First-Strand Synthesis system according to the manufacturer’s instructions (Invitrogen). Quantitative real-time PCR was performed using the KAPA SYBR FAST PCR polymerase with 20 ng template and 200 nM primers, according to the manufacturer’s instructions (Kapa Biosystems, Wilmington, MA, USA). PCR primers are listed in Supplementary Table 4. Ct values were calculated using ROX normalization using the ViiA 7 software (Applied Biosystems).
# MV-411 cells [3] = assay: Growth and survival of MV-411 cells with ectopic BCL2 (MIG-BCL2) or empty MIG vector; assay type: cell-based, human; conditions: 20 μM, p = 0.003
# Procedure: as §1
# The MIG-BCL2 vector was packaged using pUMVc and pCMV-VSVG vectors in HEK 293T cells and the FuGENE 6 transfection reagent, according to manufacturer’s instructions (Promega). Virus supernatant was collected at 48 and 72 h post transfection, pooled, filtered and stored at −80 °C. Cells were transduced with virus particles at a multiplicity of infection of 1 by spin inoculation for 90 min at 3500 rpm at 35 °C in the presence of 8 μg/ml hexadimethrine bromide. Two days after transduction, cells were isolated using fluorescence-activated cell sorting (FACSAria III, BD Bioscience, San Jose, CA, USA).
smiles,measurement,setting,value
CC[C@@H](C)[C@@H](NC(=O)[C@@H](CCCCN)NC(=O)[C@@H](CCC(=O)O)NC(=O)[C@@H](CC(C)C)NC(=O)[C@@H](CCC(=O)O)NC(=O)[C@@H](CC(C)C)NC(=O)[C@@H](CC(C)C)NC(=O)CNC(=O)[C@@H](CCSC)NC(=O)[C@@H](CO)NC(=O)[C@H](NC(=O)[C@@H](CCC(=O)O)NC(=O)[C@@H](CC(N)=O)NC(=O)CNC(=O)[C@@H](CC(C)C)NC(=O)[C@@H](CCCCN)NC(C)=O)[C@H](C)O)C(=O)NCC(=O)N[C@H](CCCCN)C(=O)NCC(=O)NCC(=O)N[C@H](CCCNC(=N)N)C(=O)N[C@H](CCCNC(=N)N)C(=O)N[C@H](CCCNC(=N)N)C(=O)N[C@H](CCC(N)=O)C(=O)N[C@H](CCCNC(=N)N)C(=O)N[C@H](CCCNC(=N)N)C(=O)N[C@H](CCCCN)C(=O)N[C@H](CCCCN)C(=O)N[C@H](CCCNC(=N)N)C(=O)NCC(=O)N[C@H](Cc1ccc(O)cc1)C(N)=O [TG3] (Ac-[dK][dL]G[dN][dE][dT][dS][dM]G[dL][dL][dE][dL][dE][dK][dI]G[dK]GG[dR][dR][dR][dQ][dR][dR][dK][dK][dR]G[dY]-NH2),Kd,CBP KIX domain,113 ± 36.6 µM
same,Changes in gene expression as compared to mock-treated cells,MOLM-13 cells,no significant changes in gene expression
same,MYB complexes bound to promoters and enhancers eliminated,MV-411 cells [1],inactive
same,Growth of AML cell lines,[2],inactive
same,BCL2 expression downregulation,MV-411 and MOLM-13 cells,not
same,Cell growth and survival of mock-treated and MIG empty vector control transduced MV-411 cells,MV-411 cells [3],inactive

# — paper PMC5760651, “Peptidomimetic blockade of MYB in acute myeloid leukemia” (Nature Communications, 2018)
